Test results published in PubChem BioAssay AID1787 (Sanford-Burnham Center for Chemical Genomics, 2009).
Calls of active or inactive are those of the source. How the calls were made is not given here.

Test system: MDA-MB-435 cytotoxicity with TRAIL, ATPlite luminescence, 24 h
Experiment: PubChem AID 1787

With CSc1nc(-c2ccc(C)cc2)nc(C(Cl)Cl)n1 the cytotoxicity (TRAIL alone cytotoxicity, dose or concentration not given here) was 42%, the cytotoxicity with TRAIL (at 30 µM (top of the series)) was 92 (inactive) and the cytotoxicity (compound alone cytotoxicity series, at 30 µM, stronger effect = higher value) was 8%.
